According to ChEMBL document CHEMBL4371069, “Click chemistry for improvement in selectivity of quinazoline-based kinase inhibitors for mutant epidermal growth factor receptors” (Bioorg Med Chem Lett, 2019):

biological target: Epidermal growth factor receptor (Homo sapiens, UniProt P00533); experiment: not given; type: ADME, cell-based, Sf21; details: not given
Sequence (P00533 whole entry): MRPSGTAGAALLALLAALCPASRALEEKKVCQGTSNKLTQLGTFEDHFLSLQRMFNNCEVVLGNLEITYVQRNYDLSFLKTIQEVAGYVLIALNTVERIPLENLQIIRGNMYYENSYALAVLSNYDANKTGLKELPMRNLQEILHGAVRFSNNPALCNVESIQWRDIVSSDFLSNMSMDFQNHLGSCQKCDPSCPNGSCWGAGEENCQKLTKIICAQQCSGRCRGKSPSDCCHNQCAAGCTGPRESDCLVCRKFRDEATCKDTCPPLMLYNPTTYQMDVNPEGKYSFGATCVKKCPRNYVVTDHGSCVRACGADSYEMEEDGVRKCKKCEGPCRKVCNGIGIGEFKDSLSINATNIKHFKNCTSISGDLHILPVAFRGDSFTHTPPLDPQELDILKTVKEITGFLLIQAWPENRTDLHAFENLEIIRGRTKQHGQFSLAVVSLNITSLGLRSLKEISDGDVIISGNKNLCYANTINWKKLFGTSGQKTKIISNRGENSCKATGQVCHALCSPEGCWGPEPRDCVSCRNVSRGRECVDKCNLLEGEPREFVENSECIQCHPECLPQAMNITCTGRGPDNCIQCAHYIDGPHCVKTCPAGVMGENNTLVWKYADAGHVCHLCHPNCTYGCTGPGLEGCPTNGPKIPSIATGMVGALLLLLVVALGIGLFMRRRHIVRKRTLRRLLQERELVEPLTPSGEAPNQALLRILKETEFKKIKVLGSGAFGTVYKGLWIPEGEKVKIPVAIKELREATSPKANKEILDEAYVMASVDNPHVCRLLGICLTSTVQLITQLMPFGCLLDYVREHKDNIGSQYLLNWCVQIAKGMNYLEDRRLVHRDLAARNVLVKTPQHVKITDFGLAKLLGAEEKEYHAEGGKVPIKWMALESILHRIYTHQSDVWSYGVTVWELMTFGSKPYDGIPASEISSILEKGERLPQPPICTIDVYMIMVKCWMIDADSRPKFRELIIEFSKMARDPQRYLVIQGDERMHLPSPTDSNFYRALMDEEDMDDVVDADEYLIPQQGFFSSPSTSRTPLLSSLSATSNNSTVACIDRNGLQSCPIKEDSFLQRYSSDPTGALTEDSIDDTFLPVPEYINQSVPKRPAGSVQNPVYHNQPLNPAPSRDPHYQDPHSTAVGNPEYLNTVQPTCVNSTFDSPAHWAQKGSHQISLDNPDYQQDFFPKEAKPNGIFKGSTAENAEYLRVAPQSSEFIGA

Compound | IC50 [nM]
C=CC(=O)Nc1cc2c(Nc3ccc(F)c(Cl)c3)ncnc2cc1OCc1cn(Cc2ccc(OC)cc2)nn1 | 41
C=CC(=O)Nc1cc2c(Nc3ccc(F)c(Cl)c3)ncnc2cc1OCc1cn(Cc2ccc(C)cc2)nn1 | 105
C=CC(=O)Nc1cc2c(Nc3ccc(F)c(Cl)c3)ncnc2cc1OCc1cn(CCc2ccccc2)nn1 | 41
C=CC(=O)Nc1cc2c(Nc3ccc(F)c(Cl)c3)ncnc2cc1OCc1cn(Cc2ccccc2)nn1 | 39
C=CC(=O)Nc1cc2c(Nc3ccc(F)c(Cl)c3)ncnc2cc1OCc1cn(-c2ccccc2)nn1 | 74
C=CC(=O)Nc1cc2c(Nc3ccc(F)c(Cl)c3)ncnc2cc1OCc1cn(CCCN2CCOCC2)nn1 | 12

biological target: Epidermal growth factor receptor (Homo sapiens, UniProt P00533, L858R/T790M); experiment: biochemical; type: cell-based, Sf21; details: not given
Sequence (P00533 25-1210 T790M/L858R limits assumed): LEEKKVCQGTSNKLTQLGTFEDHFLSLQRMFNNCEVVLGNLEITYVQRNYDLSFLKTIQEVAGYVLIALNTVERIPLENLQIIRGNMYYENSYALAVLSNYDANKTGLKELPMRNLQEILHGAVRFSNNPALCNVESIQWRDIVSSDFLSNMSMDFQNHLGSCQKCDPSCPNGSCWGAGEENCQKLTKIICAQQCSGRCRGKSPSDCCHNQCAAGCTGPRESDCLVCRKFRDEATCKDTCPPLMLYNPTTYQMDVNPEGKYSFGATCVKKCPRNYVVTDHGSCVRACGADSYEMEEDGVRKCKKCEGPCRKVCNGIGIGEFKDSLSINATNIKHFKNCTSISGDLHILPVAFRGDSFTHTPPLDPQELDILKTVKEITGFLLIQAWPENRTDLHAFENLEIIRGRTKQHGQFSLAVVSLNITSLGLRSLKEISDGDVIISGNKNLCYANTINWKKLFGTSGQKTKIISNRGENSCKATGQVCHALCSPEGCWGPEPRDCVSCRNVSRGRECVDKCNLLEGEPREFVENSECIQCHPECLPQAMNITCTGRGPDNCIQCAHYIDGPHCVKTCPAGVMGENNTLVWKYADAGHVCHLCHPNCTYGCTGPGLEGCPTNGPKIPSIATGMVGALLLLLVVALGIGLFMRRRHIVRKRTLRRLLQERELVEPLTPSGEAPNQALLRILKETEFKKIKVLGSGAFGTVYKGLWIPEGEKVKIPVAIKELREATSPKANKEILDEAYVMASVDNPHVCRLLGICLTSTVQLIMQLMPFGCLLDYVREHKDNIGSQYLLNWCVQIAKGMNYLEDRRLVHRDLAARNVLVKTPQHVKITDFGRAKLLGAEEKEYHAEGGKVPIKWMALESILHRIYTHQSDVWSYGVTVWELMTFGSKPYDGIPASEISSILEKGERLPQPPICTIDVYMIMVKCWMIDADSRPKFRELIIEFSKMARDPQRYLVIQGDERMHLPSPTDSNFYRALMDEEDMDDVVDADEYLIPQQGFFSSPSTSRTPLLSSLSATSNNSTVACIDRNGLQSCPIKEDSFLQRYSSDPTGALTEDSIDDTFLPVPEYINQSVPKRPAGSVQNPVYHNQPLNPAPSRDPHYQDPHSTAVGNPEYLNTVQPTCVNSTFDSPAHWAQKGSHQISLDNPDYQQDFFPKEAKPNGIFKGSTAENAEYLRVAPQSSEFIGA

Compound | IC50 [nM]
C=CC(=O)Nc1cc2c(Nc3ccc(F)c(Cl)c3)ncnc2cc1OCc1cn(Cc2ccc(OC)cc2)nn1 | 5
C=CC(=O)Nc1cc2c(Nc3ccc(F)c(Cl)c3)ncnc2cc1OCc1cn(Cc2ccc(C)cc2)nn1 | 15
C=CC(=O)Nc1cc2c(Nc3ccc(F)c(Cl)c3)ncnc2cc1OCc1cn(CCc2ccccc2)nn1 | 12
C=CC(=O)Nc1cc2c(Nc3ccc(F)c(Cl)c3)ncnc2cc1OCc1cn(Cc2ccccc2)nn1 | 8
C=CC(=O)Nc1cc2c(Nc3ccc(F)c(Cl)c3)ncnc2cc1OCc1cn(-c2ccccc2)nn1 | 26
C=CC(=O)Nc1cc2c(Nc3ccc(F)c(Cl)c3)ncnc2cc1OCc1cn(CCCN2CCOCC2)nn1 | 4

biological target: Receptor tyrosine-protein kinase erbB-2 (Homo sapiens, UniProt P04626); experiment: Inhibition of human C-terminal His6-tagged ERBB2 (676 to end residues) expressed in baculovirus infected sf21 cells using poly(Glu, Tyr) 4:1 as substrate; details: not given
Sequence (P04626 whole entry): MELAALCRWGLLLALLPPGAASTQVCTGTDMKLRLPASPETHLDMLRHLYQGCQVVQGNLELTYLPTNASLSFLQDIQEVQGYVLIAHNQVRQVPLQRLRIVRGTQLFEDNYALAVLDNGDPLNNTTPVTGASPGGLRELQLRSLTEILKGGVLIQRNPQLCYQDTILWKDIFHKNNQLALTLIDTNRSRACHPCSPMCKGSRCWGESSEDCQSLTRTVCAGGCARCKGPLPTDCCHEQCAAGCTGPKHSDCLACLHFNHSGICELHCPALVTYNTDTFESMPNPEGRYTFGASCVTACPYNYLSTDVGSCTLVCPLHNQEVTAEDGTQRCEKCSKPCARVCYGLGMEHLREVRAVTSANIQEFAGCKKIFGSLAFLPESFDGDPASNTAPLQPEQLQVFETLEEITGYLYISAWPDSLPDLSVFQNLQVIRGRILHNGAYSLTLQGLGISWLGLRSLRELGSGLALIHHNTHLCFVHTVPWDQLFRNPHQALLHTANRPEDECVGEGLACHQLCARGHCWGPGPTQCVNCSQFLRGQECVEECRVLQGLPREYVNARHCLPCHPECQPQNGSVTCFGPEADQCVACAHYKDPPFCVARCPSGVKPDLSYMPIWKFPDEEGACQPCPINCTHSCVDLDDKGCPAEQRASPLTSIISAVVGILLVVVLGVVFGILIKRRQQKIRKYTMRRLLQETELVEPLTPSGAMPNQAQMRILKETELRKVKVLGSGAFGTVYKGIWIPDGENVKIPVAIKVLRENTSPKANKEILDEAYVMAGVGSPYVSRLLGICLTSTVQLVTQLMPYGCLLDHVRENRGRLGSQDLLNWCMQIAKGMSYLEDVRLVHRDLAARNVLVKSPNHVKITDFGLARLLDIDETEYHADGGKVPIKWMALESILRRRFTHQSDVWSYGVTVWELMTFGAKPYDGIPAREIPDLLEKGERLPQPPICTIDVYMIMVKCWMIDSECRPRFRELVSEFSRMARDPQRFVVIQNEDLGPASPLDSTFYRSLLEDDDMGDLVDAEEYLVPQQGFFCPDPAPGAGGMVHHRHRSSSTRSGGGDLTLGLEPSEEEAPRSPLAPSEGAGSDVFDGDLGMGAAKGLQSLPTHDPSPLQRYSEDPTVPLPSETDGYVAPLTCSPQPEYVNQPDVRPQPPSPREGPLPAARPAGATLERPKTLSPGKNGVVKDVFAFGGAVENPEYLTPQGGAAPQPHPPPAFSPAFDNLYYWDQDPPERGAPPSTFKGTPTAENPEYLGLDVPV

Compound | IC50 [nM]
C=CC(=O)Nc1cc2c(Nc3ccc(F)c(Cl)c3)ncnc2cc1OCc1cn(Cc2ccc(OC)cc2)nn1 | 212
C=CC(=O)Nc1cc2c(Nc3ccc(F)c(Cl)c3)ncnc2cc1OCc1cn(Cc2ccc(C)cc2)nn1 | 158
C=CC(=O)Nc1cc2c(Nc3ccc(F)c(Cl)c3)ncnc2cc1OCc1cn(CCc2ccccc2)nn1 | 448
C=CC(=O)Nc1cc2c(Nc3ccc(F)c(Cl)c3)ncnc2cc1OCc1cn(Cc2ccccc2)nn1 | 90
C=CC(=O)Nc1cc2c(Nc3ccc(F)c(Cl)c3)ncnc2cc1OCc1cn(-c2ccccc2)nn1 | 471
C=CC(=O)Nc1cc2c(Nc3ccc(F)c(Cl)c3)ncnc2cc1OCc1cn(CCCN2CCOCC2)nn1 | 54

tested on: NCI-H1975; experiment: Antiproliferative activity against human NCI-H1975 cells harboring EGFR T790M/L858R double mutant after 72 hrs by EZ-Cytox assay; type: functional, cell-based; details: NCI-H1975, 72 h

Compound | IC50 [nM]
C=CC(=O)Nc1cc2c(Nc3ccc(F)c(Cl)c3)ncnc2cc1OCc1cn(Cc2ccc(OC)cc2)nn1 | 701
C=CC(=O)Nc1cc2c(Nc3ccc(F)c(Cl)c3)ncnc2cc1OCc1cn(Cc2ccc(C)cc2)nn1 | 417
C=CC(=O)Nc1cc2c(Nc3ccc(F)c(Cl)c3)ncnc2cc1OCc1cn(CCc2ccccc2)nn1 | 2090
C=CC(=O)Nc1cc2c(Nc3ccc(F)c(Cl)c3)ncnc2cc1OCc1cn(Cc2ccccc2)nn1 | 808
C=CC(=O)Nc1cc2c(Nc3ccc(F)c(Cl)c3)ncnc2cc1OCc1cn(-c2ccccc2)nn1 | 4780
C=CC(=O)Nc1cc2c(Nc3ccc(F)c(Cl)c3)ncnc2cc1OCc1cn(CCCN2CCOCC2)nn1 | 341

tested on: PC-9; experiment: Antiproliferative activity against human PC9 cells harboring EGFR exon-19 del mutant after 72 hrs by EZ-Cytox assay; type: functional, cell-based; details: PC-9, 72 h

Compound | IC50 [nM]
C=CC(=O)Nc1cc2c(Nc3ccc(F)c(Cl)c3)ncnc2cc1OCc1cn(Cc2ccc(OC)cc2)nn1 | 1.1
C=CC(=O)Nc1cc2c(Nc3ccc(F)c(Cl)c3)ncnc2cc1OCc1cn(Cc2ccc(C)cc2)nn1 | 1.3
C=CC(=O)Nc1cc2c(Nc3ccc(F)c(Cl)c3)ncnc2cc1OCc1cn(CCc2ccccc2)nn1 | 3.6
C=CC(=O)Nc1cc2c(Nc3ccc(F)c(Cl)c3)ncnc2cc1OCc1cn(Cc2ccccc2)nn1 | 1.2
C=CC(=O)Nc1cc2c(Nc3ccc(F)c(Cl)c3)ncnc2cc1OCc1cn(-c2ccccc2)nn1 | 32
C=CC(=O)Nc1cc2c(Nc3ccc(F)c(Cl)c3)ncnc2cc1OCc1cn(CCCN2CCOCC2)nn1 | 0.6

tested on: A549; experiment: Antiproliferative activity against human A549 cells harboring wild-type EGFR after 72 hrs by EZ-Cytox assay; type: ADME, cell-based; details: A549, 72 h

Compound | IC50 [nM]
C=CC(=O)Nc1cc2c(Nc3ccc(F)c(Cl)c3)ncnc2cc1OCc1cn(Cc2ccc(C)cc2)nn1 | 737
C=CC(=O)Nc1cc2c(Nc3ccc(F)c(Cl)c3)ncnc2cc1OCc1cn(CCCN2CCOCC2)nn1 | 8160

tested on: SK-BR-3; experiment: Antiproliferative activity against HER2-dependant human SKBR3 cells after 72 hrs by EZ-Cytox assay; type: ADME, cell-based; details: SK-BR-3, 72 h

Compound | IC50 [nM]
C=CC(=O)Nc1cc2c(Nc3ccc(F)c(Cl)c3)ncnc2cc1OCc1cn(Cc2ccc(C)cc2)nn1 | 216
C=CC(=O)Nc1cc2c(Nc3ccc(F)c(Cl)c3)ncnc2cc1OCc1cn(CCCN2CCOCC2)nn1 | 19

tested on: not listed separately; experiment: Safety index, ratio of compound IC50 to afatinib IC50 for antiproliferative activity against HER2-dependant human SKBR3 cells; type: cell-based; details: SK-BR-3 cells (HER2-dependent), read-out: Ratio IC50

Compound | selectivity ratio
C=CC(=O)Nc1cc2c(Nc3ccc(F)c(Cl)c3)ncnc2cc1OCc1cn(Cc2ccc(C)cc2)nn1 | > 95
